Data as given in patent publication US9000191B2, “Serotonin reuptake inhibitors” (Theravance Biopharma R&D IP, LLC, priority 2010, dated 2015).

Target: T1, hSERT (Homo sapiens, UniProt P31645)
T1 construct: expressed in transfected cells; host or cells: HEK293 (stably transfected, G418 selection)
Assay: hSERT neurotransmitter uptake assay
Assay type: cell-based
Details: serotonin reuptake inhibition, HEK293-hSERT cells; read-out: SERT pIC50 (converted)
Protocol: Neurotransmitter uptake assays were used to measure inhibition of ^3H-serotonin (^3H-5-HT) uptake into cells expressing hSERT in order to determine the pIC50 values of test compounds at the transporter, similar to the procedures described in Tsuruda et al. (2010) Journal of Pharmacological and Toxicological Methods 61(2):192-204.
HEK293 cells stably-transfected with human recombinant SERT (HEK293-hSERT) were grown in DMEM medium supplemented with 10% dialyzed fetal bovine serum, 100 μg/ml penicillin, 100 μg/ml streptomycin, 2 mM L-glutamine, and 250 μg/ml of the aminoglycoside antibiotic G418. Cells were incubated in a 5% CO2, humidified incubator at 37° C.
The neurotransmitter uptake assay was performed in a 96-well assay plate in a total volume of 100 μL assay buffer containing HEK293-hSERT cells (7500-10,000 cells/well; plated ˜2 hours prior to assay initiation. Neurotransmitter Transporter Uptake Assay dye (0.5 μM), and eleven different concentrations of compound ranging from 10 μM to […] was used. Non-specific uptake was determined in the presence of indatraline (2.5 μM). The final assay buffer was 12.5 mM Tris-HCl, 5 mM HEPES, 3 mM NaHCO3, 0.3 mM KH2PO4, 0.25 mM Na2HPO4, 130 mM NaCl, 5 mM KCl, 1 mM CaCl2, 0.4 mM MgCl2, 0.3 mM MgSO4, 4 mM D-glucose, 0.025% BSA, 0.1 mM ascorbic acid, pH 7.4.
In pre-incubation studies, test compound was added to cells for 30 minutes at 37° C. prior to the addition of fluorescent substrate. For determination of inhibitory potency, a 10-30 minute endpoint substrate accumulation was determined by fluorescence spectroscopy using a Safire (Tecan Group Ltd., Minnendorf, Switzerland) and analysis was performed as described in Tsuruda et al., supra. For real-time measurements, compounds were either preincubated (as above) or mixed with substrate prior to addition, and kinetic measurements, relative fluorescence units (RFU integrated over 0.5 ms), were made using a cycle time of 1 min.

T1 sequence (P31645 whole entry): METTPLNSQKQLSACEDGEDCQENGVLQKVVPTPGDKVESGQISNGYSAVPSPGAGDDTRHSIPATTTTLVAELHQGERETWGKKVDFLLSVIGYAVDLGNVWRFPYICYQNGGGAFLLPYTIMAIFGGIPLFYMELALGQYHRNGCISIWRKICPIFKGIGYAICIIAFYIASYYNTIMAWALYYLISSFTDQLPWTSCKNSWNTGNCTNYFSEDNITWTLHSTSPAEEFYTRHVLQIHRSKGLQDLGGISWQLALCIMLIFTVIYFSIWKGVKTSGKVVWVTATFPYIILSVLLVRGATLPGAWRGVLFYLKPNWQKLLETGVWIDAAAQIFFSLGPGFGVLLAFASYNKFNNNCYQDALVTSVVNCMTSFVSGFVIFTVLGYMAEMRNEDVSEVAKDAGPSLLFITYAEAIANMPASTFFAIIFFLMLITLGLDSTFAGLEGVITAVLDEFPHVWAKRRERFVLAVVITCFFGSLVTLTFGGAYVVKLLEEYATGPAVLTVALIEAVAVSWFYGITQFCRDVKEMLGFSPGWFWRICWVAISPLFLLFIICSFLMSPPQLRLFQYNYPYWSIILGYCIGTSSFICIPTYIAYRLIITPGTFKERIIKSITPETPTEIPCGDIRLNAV

SMILES | IC50 [nM]
CS(=O)(=O)C[C@H](Oc1ccc(Cl)nc1)[C@H]1CCNC1 (stereo in doubt) [Example 6-4, 2-Chloro-5-((S)-2-methanesulfonyl-1-(R)-pyrrolidin-3-ylethoxy)pyridine] | ≤ 100
CC(C)S(=O)(=O)C[C@@H](Oc1ccc(C(F)(F)F)cc1)[C@H]1CCNC1 [Example 2-13, (S)-3-[(S)-2-(Propane-2-sulfonyl)-1-(4-trifluoromethylphenoxy)ethyl]pyrrolidine] | ≤ 10
CS(=O)(=O)C[C@@H](Oc1ccc(C(F)(F)F)c(C#N)c1)[C@H]1CCNC1 [Example 2-20, 5-((S)-2-Methanesulfonyl-1-(S)-pyrrolidin-3-ylethoxy)-2-trifluoromethyl-benzonitrile] | ≤ 100
CC(=O)NCCS(=O)(=O)C[C@@H](Oc1ccc(C(F)(F)F)cc1)[C@H]1CCNC1 [Example 2-14, N-{2-[(S)-2-(S)-Pyrrolidin-3-yl-2-(4-trifluoromethylphenoxy)ethanesulfonyl]-ethyl}-acetamide] | ≤ 10
COc1cc([N+](=O)[O-])ccc1O[C@H](CS(C)(=O)=O)[C@@H]1CCNC1 [Example 2-26, (R)-3-[(S)-2-Methanesulfonyl-1-(2-methoxy-4-nitrophenoxy)ethyl]pyrrolidine] | ≤ 100
O=S(=O)(C[C@@H](Oc1ccc(C(F)(F)F)cc1)[C@H]1CCNC1)c1ccccc1 [Example 2-17, (S)-3-[(S)-2-Benzenesulfonyl-1-(4-trifluoromethylphenoxy)ethyl]pyrrolidine] | ≤ 10
CS(=O)(=O)C[C@@H](Oc1ccc(Cl)c(C#N)c1)[C@H]1CCNC1 [Example 2-22, 2-Chloro-5-((S)-2-methanesulfonyl-1-(S)-pyrrolidin-3-ylethoxy)benzonitrile] | ≤ 10
CS(=O)(=O)C[C@H](Oc1ccc(Cl)c(C#N)c1)[C@H]1CCNC1 (stereo in doubt) [Example 2-24, 2-Chloro-5-((S)-2-methanesulfonyl-1-(R)-pyrrolidin-3-ylethoxy)benzonitrile] | ≤ 10
CS(=O)(=O)C[C@@H](Oc1ccc(Cl)nc1)[C@H]1CCNC1 [Example 6-3, 2-Chloro-5-((S)-2-methanesulfonyl-1-(S)-pyrrolidin-3-ylethoxy)pyridine] | ≤ 100
CS(=O)(=O)C[C@@H](Oc1ccc(C(F)(F)F)cc1)[C@@H]1CCNC1 [Example 2-3, (R)-3-[(S)-2-Methanesulfonyl-1-(4-trifluoromethylphenoxy)ethyl]pyrrolidine] | ≤ 10
Cc1cc(Cl)ccc1O[C@@H](CS(C)(=O)=O)[C@H]1CCNC1 [Example 2-28, (S)-3-[(R)-1-(4-Chloro-2-methylphenoxy)-2-methanesulfonylethyl]pyrrolidine] | ≤ 10
CS(=O)(=O)C[C@@H](Oc1ccc(Cl)c(C#N)c1)[C@@H]1CCNC1 (stereo in doubt) [Example 2-23, 2-Chloro-5-((R)-2-methanesulfonyl-1-(S)-pyrrolidin-3-ylethoxy)benzonitrile] | ≤ 100
COc1cc([N+](=O)[O-])ccc1O[C@@H](CS(C)(=O)=O)[C@H]1CCNC1 [Example 2-25, (S)-3-[(R)-2-Methanesulfonyl-1-(2-methoxy-4-nitrophenoxy)ethyl]pyrrolidine] | ≤ 100
CC(=O)Nc1ccc(S(=O)(=O)C[C@@H](Oc2ccc(C(F)(F)F)cc2)[C@H]2CCNC2)cc1 [Example 2-18, N-{4-[(S)-2-(S)-Pyrrolidin-3-yl-2-(4-trifluoromethylphenoxy)ethanesulfonyl]-phenyl}-acetamide] | ≤ 10
CS(=O)(=O)C[C@@H](Oc1ccc(OC(F)(F)F)cc1)[C@H]1CCNC1 [Example 2-9, (S)-3-[(S)-2-Methanesulfonyl-1-(4-trifluoromethoxyphenoxy)ethyl]pyrrolidine] | ≤ 100
CS(=O)(=O)C[C@H](Oc1ccc([N+](=O)[O-])cc1)[C@H]1CCNC1 [Example 2-6, (S)-3-[(R)-2-Methanesulfonyl-1-(4-nitro-phenoxy)ethyl]pyrrolidine] | ≤ 100
CS(=O)(=O)C[C@H](Oc1ccc(C(F)(F)F)cc1)[C@@H]1CCNC1 [Example 2-2, (R)-3-[(R)-2-Methanesulfonyl-1-(4-trifluoromethylphenoxy)ethyl]pyrrolidine] | ≤ 10
CS(=O)(=O)C[C@H](Oc1ccc(C(F)(F)F)cc1)[C@H]1CCNC1 [Example 2-1, (S)-3-[(R)-2-Methanesulfonyl-1-(4-trifluoromethylphenoxy)ethyl]pyrrolidine] | ≤ 10
COc1cc([N+](=O)[O-])ccc1O[C@@H](CS(C)(=O)=O)[C@@H]1CCNC1 [Example 2-27, (R)-3-[(R)-2-Methanesulfonyl-1-(2-methoxy-4-nitrophenoxy)ethyl]pyrrolidine] | ≤ 100
CS(=O)(=O)C[C@H](Oc1ccc(Cl)cc1)[C@H]1CCNC1 [Example 2-4, (S)-3-[(R)-1-(4-Chlorophenoxy)-2-methanesulfonylethyl]pyrrolidine] | ≤ 100
CS(=O)(=O)C[C@H](Oc1ccc(C(F)(F)F)c(C#N)c1)[C@H]1CCNC1 (stereo in doubt) [Example 2-21, 5-((S)-2-Methanesulfonyl-1-(R)-pyrrolidin-3-ylethoxy)-2-trifluoromethyl-benzonitrile] | ≤ 10
O=S(=O)(CCC(Oc1ccc(C(F)(F)F)cc1)[C@H]1CCNC1)c1ccccc1 (stereo partly drawn) [Example 7, (S)-3-[3-Benzenesulfonyl-1-(4-trifluoromethylphenoxy)propyl]pyrrolidine] | ≤ 10
CS(=O)(=O)C[C@@H](Oc1ccc(OC(F)(F)F)cc1)[C@@H]1CCNC1 [Example 2-11, (R)-3-[(S)-2-Methanesulfonyl-1-(4-trifluoromethoxyphenoxy)ethyl]pyrrolidine] | ≤ 10
COC(=O)CS(=O)(=O)C[C@@H](Oc1ccc(C(F)(F)F)cc1)[C@H]1CCNC1 [Example 2-16, [(S)-(S)-Pyrrolidin-3-yl-(4-trifluoromethylphenoxy)ethanesulfonyl]acetic acid methyl ester] | ≤ 10
CS(=O)(=O)C[C@@H](Oc1ccc([N+](=O)[O-])cc1)[C@H]1CCNC1 [Example 2-5, (S)-3-[(S)-2-Methanesulfonyl-1-(4-nitrophenoxy)ethyl]pyrrolidine] | ≤ 100

Results, then the compound that gave them:

IC50 [nM] | SMILES
≤ 10 | CC(C)S(=O)(=O)CCC(Oc1ccc(C(F)(F)F)cc1)[C@H]1CCNC1 (single isomer, unassigned) [Example 8-5]
≤ 100 | CS(=O)(=O)C[C@@H](Oc1ccc(C(F)(F)F)nc1)[C@H]1CCNC1 [Example 6-2, 5-((S)-2-Methanesulfonyl-1-(S)-pyrrolidin-3-ylethoxy)-2-trifluoromethylpyridine]
≤ 10 | CS(=O)(=O)C[C@@H](Oc1ccc(C(F)(F)F)cn1)[C@H]1CCNC1 [Example 4-3, 2-((S)-2-Methanesulfonyl-1-(S)-pyrrolidin-3-yl-ethoxy)-5-trifluoromethyl-pyridine]
≤ 100 | CS(=O)(=O)CCC(Oc1ccc(C(F)(F)F)cc1)[C@@H]1CCNC1 (single isomer, unassigned) [Example 8-1]
≤ 100 | CS(=O)(=O)C[C@@H](Oc1ccc(Cl)cn1)[C@H]1CCNC1 [Example 4-1, 5-Chloro-2-((S)-2-methanesulfonyl-1-(S)-pyrrolidin-3-ylethoxy)pyridine]
≤ 100 | CS(=O)(=O)C[C@@H](Oc1ccc(C(F)(F)F)nc1)[C@@H]1CCNC1 (stereo in doubt) [Example 6-1, 5-((R)-2-Methanesulfonyl-1-(S)-pyrrolidin-3-ylethoxy)-2-trifluoromethylpyridine]
